In BindingDB's records for patent US12226414 (Suzhou Zanrong Pharma, 2025) one finds IC50 data, which are given here for two molecules.

For this assay, the target named is Serine/threonine-protein kinase ATR (Homo sapiens, UniProt Q13535). In words: ATR Biochemical Potency Assay. The method, then:
ATR enzyme was made by ChemPartner (batch: CP-ATR-20161102-M2). 2× enzyme solutions were prepared in 1× kinase base buffer. 10 μl of 2× enzyme solution (final concentration: 2.5 nM) was added to each well of the 384-well assay plate containing 60 nl compound in each well. The plate was incubated at room temperature for 10 minutes. 2× peptide solutions were prepared with FAM-labeled peptide and ATP in the 1× kinase base buffer. 10 μl of 2× peptide solution was added to each well of the 384-well assay plate, which was incubated at 28° C. for 240 min. 40 μl of stop buffer was added to stop reaction. Data were collected by Caliper.

Sequence of Serine/threonine-protein kinase ATR (Q13535 whole entry): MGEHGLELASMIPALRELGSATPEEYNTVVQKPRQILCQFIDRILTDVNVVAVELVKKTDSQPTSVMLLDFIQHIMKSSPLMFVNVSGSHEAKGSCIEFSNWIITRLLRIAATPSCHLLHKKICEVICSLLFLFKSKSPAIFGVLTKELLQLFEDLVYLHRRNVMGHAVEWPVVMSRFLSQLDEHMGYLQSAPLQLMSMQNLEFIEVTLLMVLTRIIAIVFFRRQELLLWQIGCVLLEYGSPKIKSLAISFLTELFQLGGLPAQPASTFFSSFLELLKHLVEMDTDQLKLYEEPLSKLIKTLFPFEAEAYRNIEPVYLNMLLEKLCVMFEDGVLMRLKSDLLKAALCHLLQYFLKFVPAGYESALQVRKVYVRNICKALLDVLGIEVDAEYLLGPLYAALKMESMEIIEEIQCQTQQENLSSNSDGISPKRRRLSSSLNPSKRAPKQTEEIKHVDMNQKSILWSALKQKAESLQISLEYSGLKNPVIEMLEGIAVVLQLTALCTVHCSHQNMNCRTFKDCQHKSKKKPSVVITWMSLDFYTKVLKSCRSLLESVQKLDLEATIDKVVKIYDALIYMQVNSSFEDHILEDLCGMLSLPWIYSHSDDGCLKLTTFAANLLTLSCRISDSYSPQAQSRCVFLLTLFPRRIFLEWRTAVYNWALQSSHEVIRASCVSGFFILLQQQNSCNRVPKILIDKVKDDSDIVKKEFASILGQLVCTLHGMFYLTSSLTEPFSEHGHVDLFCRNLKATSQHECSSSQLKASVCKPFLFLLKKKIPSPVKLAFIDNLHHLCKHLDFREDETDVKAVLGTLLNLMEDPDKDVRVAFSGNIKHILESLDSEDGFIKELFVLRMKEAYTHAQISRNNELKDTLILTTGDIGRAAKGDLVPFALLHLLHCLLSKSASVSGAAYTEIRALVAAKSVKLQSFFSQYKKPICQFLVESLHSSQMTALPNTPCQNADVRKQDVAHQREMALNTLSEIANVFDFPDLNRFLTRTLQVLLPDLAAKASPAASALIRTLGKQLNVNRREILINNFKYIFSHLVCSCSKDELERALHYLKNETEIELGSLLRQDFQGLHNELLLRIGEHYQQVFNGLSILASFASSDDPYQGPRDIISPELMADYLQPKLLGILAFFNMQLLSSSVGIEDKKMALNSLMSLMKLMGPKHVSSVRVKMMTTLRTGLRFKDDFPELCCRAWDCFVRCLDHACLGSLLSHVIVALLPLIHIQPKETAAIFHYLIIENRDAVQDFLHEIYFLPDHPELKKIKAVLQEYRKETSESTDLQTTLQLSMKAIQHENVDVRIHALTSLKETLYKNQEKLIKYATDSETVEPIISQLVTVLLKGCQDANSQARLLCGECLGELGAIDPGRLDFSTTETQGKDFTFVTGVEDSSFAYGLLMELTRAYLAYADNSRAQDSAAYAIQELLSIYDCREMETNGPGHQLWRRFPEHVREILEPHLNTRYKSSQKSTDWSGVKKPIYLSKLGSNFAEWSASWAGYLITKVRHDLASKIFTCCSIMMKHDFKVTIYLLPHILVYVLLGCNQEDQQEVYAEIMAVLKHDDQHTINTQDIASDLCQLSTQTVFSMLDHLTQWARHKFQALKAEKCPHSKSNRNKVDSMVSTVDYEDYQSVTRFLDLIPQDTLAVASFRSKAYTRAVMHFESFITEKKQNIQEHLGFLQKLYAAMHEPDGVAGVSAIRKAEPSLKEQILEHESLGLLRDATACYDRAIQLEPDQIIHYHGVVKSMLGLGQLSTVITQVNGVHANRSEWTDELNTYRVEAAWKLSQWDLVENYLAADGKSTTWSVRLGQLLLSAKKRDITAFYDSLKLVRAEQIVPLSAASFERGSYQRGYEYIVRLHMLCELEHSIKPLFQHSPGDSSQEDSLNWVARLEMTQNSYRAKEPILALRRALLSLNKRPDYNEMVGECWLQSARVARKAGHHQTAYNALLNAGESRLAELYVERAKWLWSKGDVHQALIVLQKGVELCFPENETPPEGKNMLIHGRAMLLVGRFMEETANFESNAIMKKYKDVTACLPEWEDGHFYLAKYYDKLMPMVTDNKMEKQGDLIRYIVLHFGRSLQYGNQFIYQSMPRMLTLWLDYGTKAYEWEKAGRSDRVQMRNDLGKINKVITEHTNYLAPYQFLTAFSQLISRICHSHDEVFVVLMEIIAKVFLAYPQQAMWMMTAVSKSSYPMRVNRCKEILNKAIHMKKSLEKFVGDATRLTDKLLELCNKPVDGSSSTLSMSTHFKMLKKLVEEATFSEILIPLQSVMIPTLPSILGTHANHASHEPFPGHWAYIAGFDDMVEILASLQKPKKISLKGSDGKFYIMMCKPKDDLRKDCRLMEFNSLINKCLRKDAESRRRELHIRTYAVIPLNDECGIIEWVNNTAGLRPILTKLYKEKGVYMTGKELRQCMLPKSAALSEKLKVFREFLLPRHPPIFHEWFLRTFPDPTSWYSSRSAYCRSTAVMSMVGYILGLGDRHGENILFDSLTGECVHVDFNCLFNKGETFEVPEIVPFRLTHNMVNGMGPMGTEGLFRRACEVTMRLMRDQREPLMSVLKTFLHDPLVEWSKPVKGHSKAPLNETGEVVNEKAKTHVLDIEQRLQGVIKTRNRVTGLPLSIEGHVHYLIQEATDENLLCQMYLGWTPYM

As to `CC(C)n1c(=O)n(C)c2nnc3cc(F)c(-c4ccc(OCCCN5CC[C@@H](F)C5)nc4)cc3c21` [US12226414, Example 15], the IC50 – broadly, the concentration that gives 50% inhibition – was over 10 µM. The value for `CC(C)n1c(=O)n(C)c2nnc3cc(F)c(-c4ccc(OCCCN5CC[C@H](F)C5)nc4)cc3c21` [US12226414, Example 14] was over 10 µM.
